In ChEMBL document CHEMBL4219086, “Development of benzoxazole deoxybenzoin oxime and acyloxylamine derivatives targeting innate immune sensors and xanthine oxidase for treatment of gout” (Bioorg Med Chem, 2018):
The source made the active and inactive calls. No cut-off for these calls is given here.

Columns and labels:
[1] = target: Xanthine dehydrogenase/oxidase (Homo sapiens, UniProt P47989); assay: Inhibition of Xanthine oxidase (unknown origin) using xanthine as substrate preincubated for 1 to 5 mins followed by substrate addition
Toll-like receptor 4 = Toll-like receptor 4 (Homo sapiens, UniProt O00206); assay: Inhibition of human TLR4 signaling expressed in HEK-Blue cells co-expressing MD2/CD14 assessed as reduction in LPS-induced NF-kappaB activation-mediated SEAP production preincubated for 2 hrs followed by LPS stimulation for 20 hrs by colorimetric assay; assay type: cell-based
[2] = target: NACHT, LRR and PYD domains-containing protein 3 (Homo sapiens, UniProt Q96P20); assay: Inhibition of NLRP3 inflammasome in human THP1 cells assessed as reduction in MSU-induced IL-1beta production preincubated for 1 hr followed by MSU stimulation measured after 6 hrs; assay type: cell-based
Mus musculus [3] = assay: Hypouricemic effect in Kunming mouse assessed as inhibition of hepatic XOD activity at 10 mg/kg, po measured after 1 hr relative to control; assay type: organism-based
Mus musculus [4] = species: Mus musculus; conditions: Kunming, 10 mg/kg
Description: Anti-hyperuricemic effect in Kunming mouse assessed as inhibition of potassium oxonate-induced serum uric acid level at 10 mg/kg, po treated 1 hr post potassium oxonate addition measured after 1 hr by phosphotungstic acid method relative to control

Mus musculus [5] = assay: In vivo inhibition of XOD activity in liver of Kunming mouse model of potassium oxonate-induced hyperuricemia at 10 mg/kg, po treated 1 hr post potassium oxonate addition measured after 1 hr relative to control; assay type: functional
Rattus norvegicus [6] = assay: Inhibition of MSU-induced caspase-1 protein level in synovial homogenate of acute gouty arthritis Sprague-Dawley rat model at 10 mg/kg, po qd pretreated via gavage for 5 days followed by MSU treatment at 1 hr post last dose measured up to 24 hrs by Western blot method; assay type: functional, organism-based
Rattus norvegicus [7] = assay: (§1) Antiarthritic activity in MSU-induced acute gouty arthritis Sprague-Dawley rat model assessed as reduction in ankle swelling by measuring perimeter of ankle at 10 mg/kg, po qd pretreated via gavage for 5 days followed by MSU treatment at 1 hr post last dose measured after 2 hrs (reference value: 2.82 +/- 0.75 cm); assay type: functional
Rattus norvegicus [8] = assay: Inhibition of MSU-induced TNFalpha level in serum of acute gouty arthritis Sprague-Dawley rat model at 10 mg/kg, po qd pretreated via gavage for 5 days followed by MSU treatment at 1 hr post last dose measured up to 24 hrs by ELISA; assay type: functional, organism-based
Rattus norvegicus [9] = assay: as §1, with “24” for “2”, “3.35” for “2.82”, “0.5” for “0.75”; assay type: functional
Rattus norvegicus [10] = assay: Inhibition of MSU-induced TNFalpha level in synovial homogenate of acute gouty arthritis Sprague-Dawley rat model at 10 mg/kg, po qd pretreated via gavage for 5 days followed by MSU treatment at 1 hr post last dose measured up to 24 hrs by ELISA; assay type: functional, organism-based
Rattus norvegicus [11] = assay: as §1, with “8” for “2”, “3.27” for “2.82”, “0.56” for “0.75”; assay type: functional
Rattus norvegicus [12] = assay: Inhibition of MSU-induced TLR4 protein level in synovial homogenate of acute gouty arthritis Sprague-Dawley rat model at 10 mg/kg, po qd pretreated via gavage for 5 days followed by MSU treatment at 1 hr post last dose measured up to 24 hrs by Western blot method; assay type: functional, organism-based
Rattus norvegicus [13] = assay: Inhibition of MSU-induced NLRP3 protein level in synovial homogenate of acute gouty arthritis Sprague-Dawley rat model at 10 mg/kg, po qd pretreated via gavage for 5 days followed by MSU treatment at 1 hr post last dose measured up to 24 hrs by Western blot method; assay type: functional, organism-based
Rattus norvegicus [14] = assay: Inhibition of MSU-induced phosphorylated IkappaB protein level in synovial homogenate of acute gouty arthritis Sprague-Dawley rat model at 10 mg/kg, po qd pretreated via gavage for 5 days followed by MSU treatment at 1 hr post last dose measured up to 24 hrs by Western blot method; assay type: functional, organism-based
Rattus norvegicus [15] = assay: as §1, with “immediately” for “after 2 hrs”, “2.64” for “2.82”, “0.81” for “0.75”; assay type: functional
Rattus norvegicus [16] = assay: Inhibition of MSU-induced ASC protein level in synovial homogenate of acute gouty arthritis Sprague-Dawley rat model at 10 mg/kg, po qd pretreated via gavage for 5 days followed by MSU treatment at 1 hr post last dose measured up to 24 hrs by Western blot method; assay type: functional, organism-based
Rattus norvegicus [17] = assay: as §1, with “12” for “2”, “3.51” for “2.82”, “0.52” for “0.75”; assay type: functional
Rattus norvegicus [18] = assay: Inhibition of MSU-induced MyD88 protein level in synovial homogenate of acute gouty arthritis Sprague-Dawley rat model at 10 mg/kg, po qd pretreated via gavage for 5 days followed by MSU treatment at 1 hr post last dose measured up to 24 hrs by Western blot method; assay type: functional, organism-based
Rattus norvegicus [19] = assay: Inhibition of MSU-induced IL-1beta level in serum of acute gouty arthritis Sprague-Dawley rat model at 10 mg/kg, po qd pretreated via gavage for 5 days followed by MSU treatment at 1 hr post last dose measured up to 24 hrs by ELISA; assay type: functional, organism-based
Rattus norvegicus [20] = assay: Inhibition of MSU-induced p65 NFkappaB protein level in synovial homogenate of acute gouty arthritis Sprague-Dawley rat model at 10 mg/kg, po qd pretreated via gavage for 5 days followed by MSU treatment at 1 hr post last dose measured up to 24 hrs by Western blot method; assay type: functional, organism-based
Rattus norvegicus [21] = assay: Inhibition of MSU-induced IL-1beta level in synovial homogenate of acute gouty arthritis Sprague-Dawley rat model at 10 mg/kg, po qd pretreated via gavage for 5 days followed by MSU treatment at 1 hr post last dose measured up to 24 hrs by ELISA; assay type: functional, organism-based
Rattus norvegicus [22] = assay: as §1, with “4” for “2”, “3.18” for “2.82”, “0.64” for “0.75”; assay type: functional

Chain of Toll-like receptor 4 (O00206 whole entry, the tested form may be a part): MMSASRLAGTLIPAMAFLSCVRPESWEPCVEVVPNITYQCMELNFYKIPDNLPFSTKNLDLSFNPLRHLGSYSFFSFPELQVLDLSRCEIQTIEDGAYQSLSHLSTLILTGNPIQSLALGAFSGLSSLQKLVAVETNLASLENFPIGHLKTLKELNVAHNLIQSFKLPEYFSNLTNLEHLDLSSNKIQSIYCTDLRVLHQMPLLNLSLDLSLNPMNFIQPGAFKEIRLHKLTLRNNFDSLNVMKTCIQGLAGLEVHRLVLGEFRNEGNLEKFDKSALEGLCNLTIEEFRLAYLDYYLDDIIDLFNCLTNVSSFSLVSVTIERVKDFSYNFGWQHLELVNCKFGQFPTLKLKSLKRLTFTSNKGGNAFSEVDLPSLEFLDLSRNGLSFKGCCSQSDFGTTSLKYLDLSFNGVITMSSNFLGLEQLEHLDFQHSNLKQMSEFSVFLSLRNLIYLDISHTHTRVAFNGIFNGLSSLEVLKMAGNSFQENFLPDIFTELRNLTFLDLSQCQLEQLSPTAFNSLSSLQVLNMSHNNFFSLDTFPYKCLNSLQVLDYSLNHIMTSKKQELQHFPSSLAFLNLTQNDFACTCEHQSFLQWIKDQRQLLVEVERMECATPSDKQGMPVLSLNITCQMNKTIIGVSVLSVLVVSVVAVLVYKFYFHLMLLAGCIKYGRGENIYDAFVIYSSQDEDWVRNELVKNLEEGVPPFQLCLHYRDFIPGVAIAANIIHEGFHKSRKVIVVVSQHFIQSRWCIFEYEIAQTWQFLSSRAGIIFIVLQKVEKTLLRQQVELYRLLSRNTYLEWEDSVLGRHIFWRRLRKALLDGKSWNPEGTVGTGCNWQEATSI
Chain of Xanthine dehydrogenase/oxidase (P47989 whole entry): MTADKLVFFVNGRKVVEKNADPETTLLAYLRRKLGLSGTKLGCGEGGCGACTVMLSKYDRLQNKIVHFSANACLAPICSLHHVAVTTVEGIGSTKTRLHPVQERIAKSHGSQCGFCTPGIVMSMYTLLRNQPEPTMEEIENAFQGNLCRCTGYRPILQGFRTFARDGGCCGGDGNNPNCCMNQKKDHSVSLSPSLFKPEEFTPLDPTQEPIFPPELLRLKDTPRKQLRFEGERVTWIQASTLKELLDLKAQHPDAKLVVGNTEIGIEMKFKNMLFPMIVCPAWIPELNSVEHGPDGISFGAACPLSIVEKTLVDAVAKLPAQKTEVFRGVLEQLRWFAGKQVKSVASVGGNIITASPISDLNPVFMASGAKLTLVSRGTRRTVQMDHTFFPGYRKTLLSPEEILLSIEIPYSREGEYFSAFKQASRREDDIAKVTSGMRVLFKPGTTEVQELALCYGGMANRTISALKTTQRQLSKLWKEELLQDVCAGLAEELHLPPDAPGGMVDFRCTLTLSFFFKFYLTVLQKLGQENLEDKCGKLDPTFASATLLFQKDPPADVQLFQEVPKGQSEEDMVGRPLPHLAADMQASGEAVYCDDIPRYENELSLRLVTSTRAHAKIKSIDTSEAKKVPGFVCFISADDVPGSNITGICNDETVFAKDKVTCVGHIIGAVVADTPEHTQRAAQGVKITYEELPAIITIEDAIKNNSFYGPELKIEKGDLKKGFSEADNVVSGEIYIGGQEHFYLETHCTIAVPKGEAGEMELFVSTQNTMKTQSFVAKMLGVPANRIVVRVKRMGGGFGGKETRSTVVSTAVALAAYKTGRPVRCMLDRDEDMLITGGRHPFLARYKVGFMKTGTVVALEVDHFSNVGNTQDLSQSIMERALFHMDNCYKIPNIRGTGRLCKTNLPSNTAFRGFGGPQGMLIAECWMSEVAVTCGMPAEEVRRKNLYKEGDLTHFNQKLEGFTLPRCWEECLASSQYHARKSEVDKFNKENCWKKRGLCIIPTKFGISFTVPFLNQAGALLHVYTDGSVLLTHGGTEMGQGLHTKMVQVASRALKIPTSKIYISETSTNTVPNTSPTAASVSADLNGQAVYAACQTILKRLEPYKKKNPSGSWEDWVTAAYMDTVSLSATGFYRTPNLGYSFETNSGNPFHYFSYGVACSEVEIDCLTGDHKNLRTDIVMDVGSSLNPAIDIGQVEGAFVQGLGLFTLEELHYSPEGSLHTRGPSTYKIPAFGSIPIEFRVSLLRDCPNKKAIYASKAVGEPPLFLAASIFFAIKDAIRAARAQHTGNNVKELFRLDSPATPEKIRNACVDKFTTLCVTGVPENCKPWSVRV
Chain of NACHT, LRR and PYD domains-containing protein 3 (Q96P20 whole entry, the tested form may be a part): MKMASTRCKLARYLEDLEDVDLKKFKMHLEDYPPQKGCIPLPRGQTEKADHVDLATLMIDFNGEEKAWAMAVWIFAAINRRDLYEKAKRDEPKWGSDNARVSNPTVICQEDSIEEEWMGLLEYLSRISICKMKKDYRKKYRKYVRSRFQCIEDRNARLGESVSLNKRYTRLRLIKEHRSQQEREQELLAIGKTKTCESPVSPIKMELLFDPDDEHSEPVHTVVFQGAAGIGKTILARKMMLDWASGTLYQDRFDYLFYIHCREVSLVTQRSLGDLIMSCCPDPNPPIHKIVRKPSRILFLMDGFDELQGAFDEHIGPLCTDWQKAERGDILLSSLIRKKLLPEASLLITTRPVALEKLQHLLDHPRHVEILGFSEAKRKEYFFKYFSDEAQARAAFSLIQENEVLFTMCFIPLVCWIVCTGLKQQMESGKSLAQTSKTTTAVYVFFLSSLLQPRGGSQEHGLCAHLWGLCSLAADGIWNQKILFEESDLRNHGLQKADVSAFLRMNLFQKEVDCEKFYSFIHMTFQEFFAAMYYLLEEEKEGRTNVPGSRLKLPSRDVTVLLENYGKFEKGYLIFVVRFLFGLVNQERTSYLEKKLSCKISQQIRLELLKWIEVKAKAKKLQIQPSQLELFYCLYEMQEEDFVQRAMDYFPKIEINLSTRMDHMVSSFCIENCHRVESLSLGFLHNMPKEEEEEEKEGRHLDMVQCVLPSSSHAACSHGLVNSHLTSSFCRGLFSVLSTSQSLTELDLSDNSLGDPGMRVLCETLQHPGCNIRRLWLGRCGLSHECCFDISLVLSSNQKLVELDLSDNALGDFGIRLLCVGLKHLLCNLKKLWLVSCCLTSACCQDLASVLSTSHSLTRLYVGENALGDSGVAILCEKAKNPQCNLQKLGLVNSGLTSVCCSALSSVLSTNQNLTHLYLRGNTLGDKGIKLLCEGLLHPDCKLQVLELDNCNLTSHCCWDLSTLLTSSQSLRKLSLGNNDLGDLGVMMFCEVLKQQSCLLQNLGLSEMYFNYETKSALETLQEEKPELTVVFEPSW

Question: How did the IC50 [1] turn out when O/N=C(\Cc1ccc(F)cc1)c1nc2cc(Cl)ccc2o1 was run?
Answer: Its IC50 is greater than 100 µM.

Question: For O/N=C(\Cc1ccccc1)c1nc2ccc(Br)cc2o1, which IC50 [1] is on record?
Answer: Its IC50 is greater than 100 µM.

Question: With CCOC(=O)C1=CCCC[C@H]1S(=O)(=O)Nc1ccc(F)cc1Cl [RESATORVID] as the molecule, how does the IC50 (Toll-like receptor 4) read?
Answer: The IC50 was 0.68 µM.

Question: For Cc1ccc2nc(/C(Cc3ccccc3)=N/O)oc2c1, which IC50 (Toll-like receptor 4) is on record?
Answer: Its IC50 is 19.3 µM.

Question: Which IC50 [2] does the source give for O=C(/C=C/c1ccc(O)cc1)c1ccc(O)cc1O [ISOLIQUIRITIGENIN] here?
Answer: The IC50 was 1.54 µM.

Question: How did the IC50 [1] turn out when O/N=C(\Cc1ccc(F)cc1)c1nc2ccc(Br)cc2o1 was run?
Answer: The IC50 was greater than 100 µM.

Question: With Oc1ncnc2[nH]ncc12 [ALLOPURINOL] as the molecule, how does the inhibition at 10 mg/kg (Mus musculus [3]) read?
Answer: Its inhibition at 10 mg/kg is 27.9%.

Question: What about the inhibition (Mus musculus [4]) of the same molecule?
Answer: The inhibition was “Active”.

Question: What about the inhibition in vivo at 10 mg/kg (Mus musculus [5]) of the same molecule?
Answer: Its inhibition in vivo at 10 mg/kg is 47.1%.

Question: With COc1ccc(C/C(=N\O)c2nc3ccc(Cl)cc3o2)cc1 as the molecule, how does the IC50 [1] read?
Answer: The IC50 was 17.8 µM.

Question: And the IC50 [2]?
Answer: The IC50 was 5.72 µM.

Question: What about the IC50 (Toll-like receptor 4) of the same molecule?
Answer: Its IC50 is 5.42 µM.

Question: Which IC50 [1] does the source give for COc1ccccc1C(=O)O/N=C(\C)c1nc2ccccc2o1 here?
Answer: Its IC50 is 15.2 µM.

Question: And the IC50 [2]?
Answer: The IC50 was 39.5 µM.

Question: What about the IC50 (Toll-like receptor 4) of the same molecule?
Answer: Its IC50 is 25.9 µM.

Question: With O/N=C(\Cc1ccc(F)cc1)c1nc2ccc(Cl)cc2o1 as the molecule, how does the IC50 [1] read?
Answer: The IC50 was greater than 100 µM.

Question: With Cc1ccc2oc(/C(Cc3ccc(F)cc3)=N/O)nc2c1 as the molecule, how does the IC50 (Toll-like receptor 4) read?
Answer: The IC50 was 45.7 µM.

Question: Which results are given for COc1cc2c(c(OC)c1OC)-c1ccc(OC)c(=O)cc1[C@@H](NC(C)=O)CC2 [COLCHICINE]?
Answer: inhibition (Rattus norvegicus [6]): Active; Activity (Rattus norvegicus [7]): 2.73 cm; inhibition (Rattus norvegicus [8]): Active; Activity (Rattus norvegicus [9]): 2.79 cm; inhibition (Rattus norvegicus [10]): Active; Activity (Rattus norvegicus [11]): 2.77 cm; inhibition (Rattus norvegicus [12]): Active; inhibition (Rattus norvegicus [13]): Active; inhibition (Rattus norvegicus [14]): Active; Activity (Rattus norvegicus [15]): 2.49 cm; inhibition (Rattus norvegicus [16]): Active; Activity (Rattus norvegicus [17]): 2.8 cm; inhibition (Rattus norvegicus [18]): Active; inhibition (Rattus norvegicus [19]): Active; inhibition (Rattus norvegicus [20]): Active; inhibition (Rattus norvegicus [21]): Active; Activity (Rattus norvegicus [22]): 2.81 cm
